For one experiment, the system named is neural stem cells. The experiment is described as follows: Effect on proliferative activity of neural stem cells (BrdU incorporation). As to conditions: 10 μM BrdU, cultivation for 24 hours under differentiation induction; n=6; P=0.02 vs control. The format is cell-based, rat. As to the method:
In the same way as Experimental Example 1, neural stem cells were divided into DHA group and control (DHA free) group, and 10 μM 5-bromo-2′-droxyuridine (BrdU; Sigma) was added under culture conditions for differentiation induction, followed by cultivation for 24 hours. Thereafter, the cells were treated with 2N HCl at 37° C. for 10 minutes and treated with 0.1 M borate buffer (Na2B4O7, pH 8.5) for 5 minutes. The cell were treated with anti-mouse BrdU antibody (1:1000 Chemicon) and then treated with FITC-labeled secondary antibody.
7 random fields per well were sampled, and the numbers of BrdU-positive cells were counted to calculate a ratio of the number of BrdU-positive cells to the number of total cells. The number of total cells was counted by PI staining. Statistical analysis was evaluated by student's t-test.

The subject of experiment [1] is neural stem cells and cells differentiated from neural stem cells. The experiment is described as follows: Effect on apoptosis of neural stem cells and cells differentiated from neural stem cells (pycnotic cells by PI staining, TUNEL). The class given is cell-based, rat. As to conditions: cultivated under differentiation induction for 7 days; n=6; P=0.01 vs control. As to the method:
In the same way as Experimental Example 1, neural stem cells were divided into DHA group and control (DHA free) group and cultivated under culture conditions for differentiation induction for 7 days, and pycnotic cells were evaluated by PI staining.
Apoptosis in the pycnotic cells were confirmed by TUNEL staining. The TUNEL staining was performed using Red In Situ Apoptosis Detection kit (Chemicon). Cells of the DHA group and the control group were cultivated for 7 days under the above-mentioned differentiation conditions and fixed with 4% paraformaldehyde, followed by incubation together with digoxigenin-dUTP in the presence of TdT at 37° C. for 1 hour. TUNEL-labeled cells were detected with Rhodamine conjugated anti-digoxigenin antibody and observed using confocal scanning laser microscopy.

The subject of experiment [2] is adult rat hippocampal dentate gyrus. The experiment is described as follows: Effect on neurogenesis in adult rat hippocampal dentate gyrus region (BrdU-NeuN double positive cells). The class given is in vivo. Conditions: 300 mg/kg/day gavaged for 7 weeks. As to the method: 18-week-old Wister male rats fed with a fish oil-free diet for three generations were used. To DHA group, 4,7,10,13,16,19-docosahexaenoate suspended in a 5% gum arabic solution was gavaged at 300 mg/kg/day every day for 7 weeks. To control group, in the same way as above, only a 5% gum arabic solution was gavaged in the same dose. From 2 weeks after initiation of oral administration, BrdU dissolved in PBS (−) was injected to rats intraperitoneally once a day for 5 days (50 mg/kg).
4 weeks after completion of BrdU administration, PBS (−) was perfused from the hearts of the rats, followed by fixation with 4% paraformaldehyde. The brains were isolated and fixed with paraformaldehyde for further 24 hours, followed by exchange for 25% sucrose. Coronal sections (40 μm) were cut by a microtome, and nuclei labeled with BrdU were detected by the following procedures. […]
Six sections were selected at intervals of 240 μm from the rostro caudal region of a granular cell layer in the whole dentate gyrus, and BrdU-NeuN double positive cells in the granular cell layer and subgranular zone (inside zone along the granular cell layer) were counted. […] The referential volume of the granular cell layer was calculated from the areas of the sampled sections.

For `CC/C=C\C/C=C\C/C=C\C/C=C\C/C=C\C/C=C\CCC(=O)O` [DHA, docosahexaenoic acid], the “ratio of BrdU-positive cells to the number of total cells” value in the experiment with neural stem cells amounted to 16.3±1.0%. The “ratio of the pycnotic cells to the number of total cells” value in experiment [1] was found to be 54.3±3.7%. Moreover, in experiment [2] (18-week-old Wister male rats), the “number of BrdU-NeuN double positive cells in the whole granular cell layer of the dentate gyrus compared to the control group” value came out at 1.6 fold. Also, in experiment [2] (n=3, P=0.005 vs control), the “average number of the BrdU-NeuN double positive cells in the respective sections” value was 878±72.3 cells.
